Earlier results in patent US12171869B2, “Intracameral drug delivery depots” (Incept, LLC., priority 2016, dated 2024).
“And” between values parts separate entries of the source, which are not always exact repeats. Equal entries are not always repeated. One block for each molecule: values may come before it.

Assays:
[1] = intracameral administration, clinical studies (Charters 2016); 10 μg dose
[2] = eye drop studies in humans (Faulkner et al., 2010; Martinez-de-la-Casa et al., 2012)
[3] = test system: beagle; conditions: 0.004% once a day, normal healthy beagles, 5 treatment days (Carvalho et al., 2006)

Structure (SMILES): CCNC(=O)CCC/C=C\C[C@@H]1[C@@H](/C=C/[C@@H](O)CCc2ccccc2)[C@H](O)C[C@@H]1O [bimatoprost]
duration of IOP reduction [1]: up to 4 months

travoprost free acid Cmax [2]: ~2 ng/mL and ~3 ng/mL
Structure (SMILES): O=C(O)CCC/C=C\C[C@@H]1[C@@H](/C=C/[C@@H](O)COc2cccc(C(F)(F)F)c2)[C@H](O)C[C@@H]1O [travoprost free acid]

Structure (SMILES): CC(C)OC(=O)CCC/C=C\C[C@@H]1[C@@H](/C=C/[C@@H](O)COc2cccc(C(F)(F)F)c2)[C@H](O)C[C@@H]1O [travoprost, isopropyl (Z)-7-[(1R,2R,3R,5 S)-3,5-dihydroxy-2-[(1E,3R)-3-hydroxy-4-[(α,α,α-trifluoro-m-tolyl)oxy]-1-butenyl]cyclopentyl]-5-heptenoate]
hyperemia [3]: hyperemia for the entire treatment period
